Laboratory results as given in ChEMBL document CHEMBL1201862, “PubChem BioAssay data set” (2004).
The source made the active and inactive calls. Rule as the data show it, for most assays here: actives have a measured EC50 and inactives only a lower limit.

Assays:
[1] = molecular target: T1, RNA-binding protein pos-1 (Caenorhabditis elegans, UniProt G5EF15); experiment: inhibitors of POS-1/mex-3 RNA binding, dose response, biochemical, fluorescence polarization (AID 1964);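 also: purified POS-1 fused to maltose binding protein made in E. coli; potency of compounds blocking POS-1 binding to fluorescent RNA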
T1 sequence (G5EF15 whole entry): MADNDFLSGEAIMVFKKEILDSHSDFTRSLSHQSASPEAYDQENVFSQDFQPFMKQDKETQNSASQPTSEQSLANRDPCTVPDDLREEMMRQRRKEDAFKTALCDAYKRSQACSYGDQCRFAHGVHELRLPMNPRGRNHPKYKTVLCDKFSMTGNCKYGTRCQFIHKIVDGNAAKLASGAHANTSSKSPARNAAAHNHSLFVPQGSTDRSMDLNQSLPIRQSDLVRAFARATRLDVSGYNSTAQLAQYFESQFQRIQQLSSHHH

[2] = molecular target: T2, Zinc finger protein mex-5 (Caenorhabditis elegans, UniProt Q9XUB2); experiment: MEX-5/TCR-2 RNA interaction inhibitors, dose response, biochemical, C. elegans, fluorescence polarization (AID 1960)
T2 sequence (Q9XUB2 whole entry): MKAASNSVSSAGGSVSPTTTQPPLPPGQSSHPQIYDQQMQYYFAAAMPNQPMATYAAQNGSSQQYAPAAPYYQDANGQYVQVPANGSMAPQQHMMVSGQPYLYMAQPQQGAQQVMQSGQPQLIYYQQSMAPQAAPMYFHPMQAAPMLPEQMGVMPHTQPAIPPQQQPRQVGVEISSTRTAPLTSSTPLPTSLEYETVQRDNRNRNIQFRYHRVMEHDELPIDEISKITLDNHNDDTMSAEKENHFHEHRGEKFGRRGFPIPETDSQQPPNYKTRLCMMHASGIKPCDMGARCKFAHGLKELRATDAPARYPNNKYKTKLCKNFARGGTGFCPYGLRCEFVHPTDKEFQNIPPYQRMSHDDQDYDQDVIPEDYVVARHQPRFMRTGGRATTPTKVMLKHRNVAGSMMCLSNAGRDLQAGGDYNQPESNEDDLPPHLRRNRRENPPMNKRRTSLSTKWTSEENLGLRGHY

Protein RecA = molecular target: T3, Protein RecA (Mycobacterium tuberculosis, UniProt P9WHJ3); experiment: Fluorescence Cell-Free Homogeneous Dose Retest to Identify Inhibitors of RecA-Intein Splicing Activity. [Related pubchem assays (depositor defined):AID2097, AID2223, AID489010, AID492950]; type: functional
T3 sequence (P9WHJ3 whole entry): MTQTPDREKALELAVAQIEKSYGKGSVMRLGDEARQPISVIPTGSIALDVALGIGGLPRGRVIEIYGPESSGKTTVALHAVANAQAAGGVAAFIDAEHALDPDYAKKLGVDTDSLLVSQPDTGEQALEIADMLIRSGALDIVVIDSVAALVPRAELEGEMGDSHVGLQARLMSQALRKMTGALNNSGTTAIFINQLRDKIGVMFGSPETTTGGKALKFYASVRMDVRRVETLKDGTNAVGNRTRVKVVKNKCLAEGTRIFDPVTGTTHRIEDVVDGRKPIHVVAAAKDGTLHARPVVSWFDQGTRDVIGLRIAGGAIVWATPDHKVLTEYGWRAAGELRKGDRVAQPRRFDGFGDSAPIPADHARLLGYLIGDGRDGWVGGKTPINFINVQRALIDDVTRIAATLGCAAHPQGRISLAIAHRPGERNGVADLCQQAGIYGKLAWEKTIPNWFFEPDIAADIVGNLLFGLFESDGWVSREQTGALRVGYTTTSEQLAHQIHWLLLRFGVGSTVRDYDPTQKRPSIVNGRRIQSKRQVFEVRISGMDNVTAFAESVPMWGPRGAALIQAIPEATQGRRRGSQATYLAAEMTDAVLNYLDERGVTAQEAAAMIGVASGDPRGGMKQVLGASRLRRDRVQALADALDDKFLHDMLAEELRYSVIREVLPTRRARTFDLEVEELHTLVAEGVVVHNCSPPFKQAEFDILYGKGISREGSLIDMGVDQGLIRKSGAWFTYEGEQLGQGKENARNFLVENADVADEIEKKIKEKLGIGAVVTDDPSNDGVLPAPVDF

[3] = molecular target: T4, Replicative DNA helicase DnaB (Mycobacterium tuberculosis, UniProt P9WMR3); experiment: DnaB intein splicing inhibitors, dose response, biochemical, cell-free fluorescence (AID 449749); type: functional
T4 sequence (P9WMR3 whole entry): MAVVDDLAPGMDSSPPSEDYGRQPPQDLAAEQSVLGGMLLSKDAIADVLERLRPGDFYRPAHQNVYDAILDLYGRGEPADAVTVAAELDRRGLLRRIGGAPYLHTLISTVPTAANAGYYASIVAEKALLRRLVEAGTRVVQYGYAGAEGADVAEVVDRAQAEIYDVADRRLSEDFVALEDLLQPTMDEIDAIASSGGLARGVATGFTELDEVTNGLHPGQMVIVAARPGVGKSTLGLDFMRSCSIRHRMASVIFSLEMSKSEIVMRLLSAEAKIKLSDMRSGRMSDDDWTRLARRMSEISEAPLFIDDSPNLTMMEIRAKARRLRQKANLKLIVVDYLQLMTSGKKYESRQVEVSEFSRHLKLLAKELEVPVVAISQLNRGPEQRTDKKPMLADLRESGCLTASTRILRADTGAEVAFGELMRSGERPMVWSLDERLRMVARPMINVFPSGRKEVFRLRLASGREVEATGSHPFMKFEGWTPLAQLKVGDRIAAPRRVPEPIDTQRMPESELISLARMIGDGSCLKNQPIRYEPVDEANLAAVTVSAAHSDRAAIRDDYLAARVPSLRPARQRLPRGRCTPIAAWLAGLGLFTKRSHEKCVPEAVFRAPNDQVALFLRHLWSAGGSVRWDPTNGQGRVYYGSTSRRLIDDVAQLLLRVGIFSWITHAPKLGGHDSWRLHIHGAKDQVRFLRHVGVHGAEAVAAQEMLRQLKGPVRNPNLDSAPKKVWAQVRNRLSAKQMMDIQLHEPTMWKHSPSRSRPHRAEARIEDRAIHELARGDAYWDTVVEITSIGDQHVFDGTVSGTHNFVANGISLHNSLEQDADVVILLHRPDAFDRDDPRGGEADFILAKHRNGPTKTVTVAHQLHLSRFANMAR

[4] = molecular target: Luciferin 4-monooxygenase (Photinus pyralis, UniProt P08659); experiment: firefly luciferase enzyme inhibitors, dose response, biochemical, luminescence (AID 1891)
Chain of Luciferin 4-monooxygenase (P08659 whole entry): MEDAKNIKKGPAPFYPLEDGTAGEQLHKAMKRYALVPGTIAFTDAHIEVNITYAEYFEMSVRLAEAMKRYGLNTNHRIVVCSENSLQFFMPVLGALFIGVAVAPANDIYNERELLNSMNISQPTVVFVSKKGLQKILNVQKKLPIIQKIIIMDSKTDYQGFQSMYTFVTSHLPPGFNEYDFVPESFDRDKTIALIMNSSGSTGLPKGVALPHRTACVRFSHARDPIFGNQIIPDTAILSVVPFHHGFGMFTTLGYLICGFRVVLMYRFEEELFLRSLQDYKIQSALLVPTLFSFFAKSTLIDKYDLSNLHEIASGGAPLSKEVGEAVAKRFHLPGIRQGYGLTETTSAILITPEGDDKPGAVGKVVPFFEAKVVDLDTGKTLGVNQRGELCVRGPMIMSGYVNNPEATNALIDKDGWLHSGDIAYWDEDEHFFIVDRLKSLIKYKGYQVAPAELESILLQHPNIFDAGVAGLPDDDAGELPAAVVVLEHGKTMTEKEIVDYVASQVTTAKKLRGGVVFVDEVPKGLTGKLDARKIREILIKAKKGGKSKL

[5] = Luminescence Cell-Based Dose Confirmation HTS to Identify Inhibitors of Platelet Dense Granule Release. [Related pubchem assays: 1663 (Primary HTS), 1678 (Summary of Project)]; type: functional
[6] = inhibitors of SNCA 5'UTR-driven reporter translation, confirmation, H4 neuroglioma cells, luminescence (AID 1988); type: functional, cell-based
[7] = Luminescence Cell-Based Dose Response HTS to Identify Inhibitors of 5'UTR Stem-Loop Driven Prion Protein mRNA Translation in H4 Neuroglioblastoma Cells. [Related pubchem assays: 1827 (Project Summary), 1813 (Primary HTS)]; type: functional
Protein skinhead-1 = molecular target: T5, Protein skinhead-1 (Caenorhabditis elegans, UniProt P34707); type: functional
T5 sequence (P34707 whole entry): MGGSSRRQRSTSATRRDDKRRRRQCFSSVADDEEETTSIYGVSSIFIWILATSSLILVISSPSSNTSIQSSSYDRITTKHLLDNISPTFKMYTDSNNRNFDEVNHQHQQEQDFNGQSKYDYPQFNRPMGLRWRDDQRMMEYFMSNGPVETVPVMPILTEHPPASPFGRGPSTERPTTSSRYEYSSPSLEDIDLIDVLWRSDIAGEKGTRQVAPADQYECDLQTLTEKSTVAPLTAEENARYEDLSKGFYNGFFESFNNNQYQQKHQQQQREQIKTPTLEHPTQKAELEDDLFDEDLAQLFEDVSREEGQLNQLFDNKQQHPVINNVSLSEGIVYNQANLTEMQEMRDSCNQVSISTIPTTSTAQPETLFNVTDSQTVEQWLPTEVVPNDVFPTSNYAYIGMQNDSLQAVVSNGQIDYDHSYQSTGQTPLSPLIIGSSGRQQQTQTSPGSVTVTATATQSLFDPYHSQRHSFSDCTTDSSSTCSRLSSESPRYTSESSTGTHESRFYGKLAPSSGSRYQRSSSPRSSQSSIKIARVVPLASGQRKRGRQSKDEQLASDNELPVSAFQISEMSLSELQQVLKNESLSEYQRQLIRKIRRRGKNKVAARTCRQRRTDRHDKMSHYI

[8] = test system: Streptococcus sp. 'group A'; experiment: growth inhibition of control SK(-) GAS strain, dose response, counter-screen for streptokinase expression inhibitor project, luminescence, kanamycin, BacTiterGlo, confirmation (AID 1900); type: functional, organism-based
Streptococcus = experiment: Group A Streptococcus viability loss, dose response, counter-screen for streptokinase expression inhibitor project, luminescence, BacTiterGlo (AID 1915); type: functional, organism-based;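 also: potency for reduction of bacterial viability or growth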
[9] = Luminescence Cell-Based Dose Retest to Confirm Inhibitors of Cancer Stem Cells. [Related pubchem assays (depositor defined):AID2717, AID2721]; type: functional; settings: Homo sapiens
[10] = molecular target: T6, Heat shock factor protein 1 (Mus musculus, UniProt P38532); experiment: inhibition of MG132-induced HSE-luciferase signal, confirmation, cell-based, NIH3T3, luminescence, dose retest (AID 2382); type: functional;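 also: NIH3T3 fibroblasts with HSF1-driven luciferase reporter stressed by proteasome inhibitor MG132; luminescence from HSF1-driven luciferase expression after 8 hours of MG132 stress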
T6 sequence (P38532 whole entry): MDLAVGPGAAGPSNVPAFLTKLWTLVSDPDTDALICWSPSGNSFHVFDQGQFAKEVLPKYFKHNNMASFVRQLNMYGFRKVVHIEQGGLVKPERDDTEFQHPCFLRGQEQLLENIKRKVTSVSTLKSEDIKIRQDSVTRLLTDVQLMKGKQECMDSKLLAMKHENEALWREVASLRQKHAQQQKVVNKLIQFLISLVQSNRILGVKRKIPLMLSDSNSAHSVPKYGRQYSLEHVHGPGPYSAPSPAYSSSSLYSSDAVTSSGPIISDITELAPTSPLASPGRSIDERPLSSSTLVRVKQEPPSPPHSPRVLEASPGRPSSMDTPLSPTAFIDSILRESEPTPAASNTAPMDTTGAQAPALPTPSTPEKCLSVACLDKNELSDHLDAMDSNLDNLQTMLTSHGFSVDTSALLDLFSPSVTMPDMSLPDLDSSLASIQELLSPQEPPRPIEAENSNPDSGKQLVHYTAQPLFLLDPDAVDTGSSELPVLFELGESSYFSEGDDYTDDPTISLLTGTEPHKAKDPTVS

## CCc1ccccc1N1C(=O)NC(=O)/C(=C\c2cc(C)n(C)c2C)C1=O
[1]
  EC50: > 300 µM (not active)
[2]
  EC50: > 300 µM (inconclusive)

## CCCc1c(C(=O)NNc2cccc(Cl)c2)cnn1-c1ccccc1
Protein RecA
  EC50: > 380 µM (inactive)
[3]
  AC50: 10.7 µM (active)

## COc1ccc(/C=C2\N=C(C)OC2=O)cc1OC
[1]
  EC50: > 300 µM (not active)
[2]
  EC50: > 300 µM (not active)

## CCOC(=O)Nc1ccc2c(COC(=O)CNS(=O)(=O)c3cccc(Br)c3)cc(=O)oc2c1
[4]
  EC50: > 112 µM (not active)
[5]
  EC50: > 112 µM (not active)

## Nc1cccc2c(O)cccc12
Protein RecA
  EC50: 15.5 µM (active)
[3]
  AC50: 22.1 µM (active)

## Cc1ccc(-c2[nH]ncc2/C=C(\C#N)C(=O)NC2CCCCC2)cc1
[6]
  EC50: > 120 µM (not active)
[7]
  EC50: 71.5 µM (active)
Protein skinhead-1
  IC50: > 100 µM (inactive)

## COC(=O)c1c(NC(=O)/C=C/C(=O)O)sc(Cc2ccccc2)c1C
Protein RecA
  EC50: 7.93 µM (active)
[3]
  AC50: 3.23 µM (active)

## Oc1nc2ccc(Cl)cc2c(-c2ccccc2)c1SC(=S)N1CCCCC1
Protein RecA
  EC50: > 380 µM (inactive)
[3]
  AC50: > 380 µM (inactive)

## CC(C)=CCC/C(C)=C/Cc1c(O)ccc(C(=O)/C=C/c2ccc(O)cc2)c1O [XANTHOANGELOL]
[8]
  EC50: 1.05 µM (active)
Protein RecA
  EC50: 88.4 µM (active)
Streptococcus
  EC50: 1.68 µM (active)
[3]
  AC50: 3.19 µM (active)
[9]
  AC50: 9.49 µM (active)

## Cc1cc(/C=C2/C(=O)NC(=O)N(c3ccc(Br)cc3)C2=O)c(C)n1C
[1]
  EC50: 52.2 µM (active)
[2]
  EC50: 53 µM (active)

## O=C(O)c1cc(-c2cccc3ccccc23)nc2ccccc12
[10]
  EC50: > 195 µM (not active)
Protein skinhead-1
  IC50: > 100 µM (inactive)

## COc1cc(C(c2c(C)n[nH]c2O)c2c(C)n[nH]c2O)cc(OC)c1OC
Protein RecA
  EC50: 0.262 µM (active)
[3]
  AC50: 0.313 µM (active)

## Cc1c(C)n(C)c2ccc(C(=O)NCCN3CCOCC3)cc12
Protein skinhead-1
  IC50: > 100 µM (inactive)

## N#CC1=C(N)C(C#N)(C#N)[C@H](c2ccsc2)[C@H]2COCC=C12
[1]
  EC50: > 300 µM (not active)
[2]
  EC50: > 300 µM (not active)

## CC1(C)CC(=O)C2=C(C1)OC(N)=C(C#N)[C@@H]2c1ccccc1[N+](=O)[O-]
[1]
  EC50: 22.3 µM (inconclusive)
[2]
  EC50: 23.9 µM (active)

## CCc1nnc(NC(=O)CSc2nnc(COc3cccc(C)c3)o2)s1
Protein skinhead-1
  IC50: > 100 µM (inactive)

## O=C(O)c1ccccc1-n1c(-c2ccccc2)cc2c1CCCC2=O
[1]
  EC50: > 300 µM (not active)
[2]
  EC50: > 300 µM (not active)

## N#Cc1c(C#N)c(-c2ccccc2)n(-c2ccc(C(=O)O)cc2)c1N
[1]
  EC50: > 300 µM (not active)
[2]
  EC50: > 300 µM (not active)

## Cc1cc(C)n(CC(O)Cn2c(C)c(C)c3ccccc32)n1 (stereo not given)
Protein skinhead-1
  IC50: > 100 µM (inactive)

## CCn1c(SCC(=O)Nc2ccc(NC(=O)c3cccs3)cc2)nnc1-c1cccnc1
Protein skinhead-1
  IC50: > 100 µM (inactive)
